A short description of this series: solvent given as SMILES.

For the compound `CCCCCCCCCCCCCCn1c(-c2cc(-c3nc4ccc(C)cc4n3CCCCCCCCCCCCCC)cc(-c3nc4ccc(C)cc4n3CCCCCCCCCCCCCC)c2)nc2ccc(C)cc21`, the emission maximum (in C1CCOC1) came out at 368.6 nm.
The compound `Cc1cc(=O)c2ccc(N)cc2o1` yielded an emission maximum (in C1CCOC1) of 382 nm; an emission maximum (in C1COCCO1) of 378 nm; an emission maximum (in CC#N) of 388 nm; an emission maximum (in CC(C)O) of 418 nm; an emission maximum (in CCCCO) of 417 nm; an emission maximum (in CCCO) of 416 nm. The emission maximum runs as follows: (in CCOC(C)=O) 378 nm; (in CN(C)C=O) 408 nm; (in CO) 421 nm; (in CS(C)=O) 402 nm; (in ClC(Cl)Cl) 380 nm; (in O) 435 nm.
Compound `C[Si]1(C)O[Si](C)(C)c2cc3cc4cc5c(cc4cc3cc21)C(=O)c1cc2cc3cc4c(cc3cc2cc1C5=O)[Si](C)(C)O[Si]4(C)C` yielded an emission maximum (in ClC(Cl)Cl) of 518 nm.
For the setting “in ClCCl”, `O=c1c2ccccc2nc2ccccn12` came in with an emission maximum of 442 nm.
Where the note is “in CC#N”, `Oc1ccc2ccccc2c1/C=N/c1ccccc1/N=C/c1c(O)ccc2ccccc12` showed an emission maximum of 496 nm.
For the compound `CC(C)(C)c1ccc2c(c1)sc1[n+]2[B-](F)(F)n2c(c3cccc4c(Br)ccc2c43)=N1`, the emission maximum reads like this: (in C1CCOC1) 520 nm; (in CC#N) 519 nm; (in CCCCCC) 516 nm; (in Cc1ccccc1) 524 nm; (in ClCCl) 552 nm.
As for `CN(C)c1ccc2nc(-c3ccc(C(=O)Nc4ccccc4)cc3)sc2c1`, the emission maximum is reported as 427 nm (in C1CCCCC1); 553 nm (in CC#N); 534 nm (in CC(C)O); 565 nm (in CO); 564 nm (in CS(C)=O); 494 nm (in ClC(Cl)Cl). The same compound gave an emission maximum (in c1ccccc1) of 475 nm.
For the setting “in CC#N”, `CN(C)c1ccc(-c2nc3cc(C(F)(F)F)ccc3n2-c2ccccc2)cc1` returned an emission maximum of 406 nm.
Take `COc1cc(OC)c(C2=C3C(C)=CC(C)=[N+]3[B-](F)(F)n3c(C)cc(C)c32)c(OC)c1`: the emission maximum runs as follows: (in C1CCOC1) 517 nm; (in CC#N) 513 nm; (in CC(=O)C(C)(C)C) 517 nm; (in CC(C)=O) 515 nm; (in CCCCCC) 520 nm; (in CCOC(C)=O) 511 nm. Moreover, the emission maximum (in CO) is recorded as 515 nm.
As for `F[B-]1(F)n2c(cc(Br)c2Br)C(c2ccccc2)=C2C=C(Br)C(c3ccc[nH]3)=[N+]21`, the emission maximum (in ClC(Cl)Cl) was found to be 642 nm.
For the compound `C#CCOc1ccc(/C=C/C2=[N+]3C(=C(c4ccc(N5CCCCC5)cc4)c4c(C)cc(C)n4[B-]3(F)F)C(C)=C2)cc1`, the emission maximum (in CO) was 582 nm.
As to `COc1cccc(OC)c1-c1c2ccc(=[N+]3CCNCC3)cc-2oc2cc(N3CCNCC3)ccc12`, the emission maximum came to 582 nm (in CCO) and 568 nm (in O).
On to `O=Cc1ccc(-c2cccc(-c3nc4ccccc4s3)c2O)o1`, for which the emission maximum runs as follows: (in CCO) 567 nm; (in ClCCl) 565 nm; (in O) 585 nm.
As to `Cc1ccc(N(C)C)cc1C1=C2C=CC(=[N+](C)C)C=C2[Si](C)(C)c2cc(N(C)C)ccc21`, the emission maximum (in O) stood at 662 nm.
`CC1=CC(/C=C/c2ccc(OCCCN=[N+]=[N-])cc2)=[N+]2C1=C(c1ccc(N3CCCCC3)cc1)c1c(C)cc(C)n1[B-]2(F)F`: the emission maximum (in CO) worked out at 586 nm.
With `Cc1cc(C)c(C2=C3C=CC4=[N+]3[B-]3(Oc5ccccc54)Oc4ccccc4-c4ccc2n43)c(C)c1` (configuration not stated), the emission maximum (in ClC(Cl)Cl) is reported as 645 nm.
`Cc1cc(=O)oc2c1cc(Br)c1occ(C)c12`: the emission maximum is reported as 400 nm (in C1CCCCC1); 407 nm (in C1COCCO1); 413 nm (in CC#N); 416 nm (in CCO); 426 nm (in OCC(F)(F)F).
On to `NCCCCCCCCCCCCN1C(=O)c2ccc3c4ccc5c6c(ccc(c7ccc(c2c37)C1=O)c64)C(=O)N(c1ccc(O)cc1)C5=O`, for which the emission maximum (in CN(C)C=O) was determined as 534 nm.
In the case of `c1ccc2c(-n3cnc4ccccc43)cccc2c1`, the emission maximum was found to be 358 nm (in C1CCCCC1); 359 nm (in C1CCOC1); 362 nm (in CC#N); 360 nm (in CCO); 361 nm (in CCOC(C)=O); 361 nm (in CCOCC). Moreover, the emission maximum turned out to be 360 nm (in CO), 359 nm (in Cc1ccccc1) and 362 nm (in ClC(Cl)Cl).
In the case of `CCOC(=O)c1c(-c2cc3cc(OC)ccc3oc2=O)nn(-c2cccc(Cl)c2)c1C(=O)OCC`, for the setting “in ClCCl”, the emission maximum is 445 nm.
Turning to `c1ccc(-c2nc(-c3ccccc3)nc(-c3ccc(-n4c5ccc(-c6ccc7sc8ccccc8c7c6)cc5c5cc(-c6ccc7sc8ccccc8c7c6)ccc54)cc3)n2)cc1`, the emission maximum is on record as 473 nm (in CCOC(C)=O), 531 nm (in CN(C)C=O) and 437 nm (in Cc1ccccc1).
Consider `COc1ccc(-c2nc(-c3ccc(OC)cc3)n3ccccc23)cc1`, for which the emission maximum (in ClC(Cl)Cl) is on record as 479 nm.
For `CCCCN1C(=O)c2cc(Oc3ccc(C(C)(C)C)cc3)c3c4c(Oc5ccc(C(C)(C)C)cc5)cc5c6c(cc(Oc7ccc(C(C)(C)C)cc7)c(c7c(Oc8ccc(C(C)(C)C)cc8)cc(c2c37)C1=O)c64)C(=O)N(CCCC)C5=O`, the emission maximum is 615 nm (in ClC(Cl)Cl) and 607 nm (in ClCCl).
`CCC(C)(C)c1ccc2c(c1)C(CCOC)(CCOC)c1cc(-c3ccc4c(c3)C(CCOC)(CCOC)c3cc(C(C)(C)CC)ccc3-4)ccc1-2`: under “in C1CCCCC1”, the emission maximum is 371 nm.
Under “in CC#N”, `COc1ccc(C#Cc2ccc3ccc(=O)oc3c2)cc1` registered an emission maximum of 465 nm.
In the case of `COc1ccc(C(=Cc2ccc(/C=C(\C#N)c3ccccc3)cc2)c2ccc(OC)cc2)cc1`, the emission maximum (in C1CCOC1) came to 510 nm.
`CCN(CC)c1ccc2cc(C#N)c(=N)oc2c1` gave an emission maximum (in ClCCl) of 460 nm.
On the same count and under the same terms, next, `F[B-]12Oc3ccccc3-c3c4[n+]5c(c([n+]31)-c1ccccc1O2)-c1ccccc1O[B-]5(F)Oc1ccccc1-4`: 623 nm.
Take `CCN(CC)c1ccc(-c2nc3c4ccccc4n(C)c3nc2-c2ccc([B-](F)(c3c(C)cc(C)cc3C)c3c(C)cc(C)cc3C)cc2)cc1`: the emission maximum (in C1CCOC1) was found to be 508.44 nm.
Consider `N#Cc1nc(N(Cc2ccccc2I)Cc2ccccc2I)c(C#N)nc1N(Cc1ccccc1I)Cc1ccccc1I`, for which the emission maximum (in ClC(Cl)Cl) stood at 567 nm.
Turning to `CCCCc1cc(-c2cccc(COC)c2)oc1-c1cccc(-c2cc(CCCC)c(-c3cccc(-c4oc(-c5cccc(-c6oc(-c7cccc(COC)c7)cc6CCCC)c5)cc4CCCC)c3)o2)c1`, the emission maximum (in ClC(Cl)Cl) is 373 nm.
As for `COc1ccc2c(C#N)cc3ccc4cc(C#N)c5ccc(OC)cc5c4c3c2c1`, the emission maximum (in ClC(Cl)Cl) was 426 nm.
In turn, `CCCCCCCCCCCCCCCCn1c(-c2cc(-c3nc4ccccc4n3CCCCCCCCCCCCCCCC)cc(-c3nc4ccccc4n3CCCCCCCCCCCCCCCC)c2)nc2ccccc21` had an emission maximum (in C1CCOC1) of 363 nm.
Under “in C1COCCO1”, `COC(=O)c1ccc(/C=C2\N=C(c3ccccc3)NC2=O)cc1` came in with an emission maximum of 461 nm.
As for `CN(C)c1ccc(-n2c(-c3ccncc3)nc3ccccc32)cc1`, the emission maximum (in CC#N) came out at 556 nm.
Regarding `Cc1cc(=O)oc2cc3cc(O)ccc3cc12`, the emission maximum by setting is: (in CC#N) 450 nm; (in CCO) 466 nm.
`COc1c2ccccc2c(-c2ccccc2)c2ccccc12` came in with an emission maximum (in C1COCCO1) of 424 nm; an emission maximum (in CCCCCC) of 420 nm; an emission maximum (in CCCCCCC) of 420 nm; an emission maximum (in CCCCO) of 426 nm; an emission maximum (in CCO) of 426 nm; an emission maximum (in CN(C)C=O) of 426 nm. In addition, the emission maximum was determined as 419 nm (in Cc1ccccc1); 426 nm (in ClC(Cl)(Cl)Cl); 426 nm (in ClC(Cl)Cl); 426 nm (in ClCCl); 426 nm (in OCC(O)CO); 426 nm (in OCCO).
As to `c1ccc2c(c1)c1ccccc1c1[nH]c(-c3ccc(-c4nc5c6ccccc6c6ccccc6c5[nH]4)cc3)nc21`, the emission maximum is, setting by setting: (in C1CCOC1) 456 nm; (in CC#N) 462 nm; (in CCO) 461 nm; (in CS(C)=O) 430 nm; (in ClCCl) 465 nm.
For the compound `COC(=O)c1nc2c(N(C)C)nc(N)nc2n1Cc1ccccc1`, the emission maximum is listed as 391 nm (in C1COCCO1), 399 nm (in CC#N), 420 nm (in CO) and 393 nm (in ClCCl).
On to `COc1cc2c(cc1-c1ccc(C#N)cc1)Cc1c3c(c4c(c1-2)-c1cc(OC)c(-c2ccc(C#N)cc2)cc1C4)C(=O)N(CCC(C)C)C3=O`, for which the emission maximum (in C1CCOC1) worked out at 460 nm.
Take `COc1ccc2c(c1)c1cc(OC)ccc1n2-c1ccc(S(=O)(=O)c2ccc(-n3c4ccc(OC)cc4c4cc(OC)ccc43)cc2)cc1`: the emission maximum (in Cc1ccccc1) is on record as 445 nm.
In turn, `O=C(Cc1ccccc1)OCc1ccc2c3cccc4cccc(c5cccc1c52)c43` yielded an emission maximum (in CCO) of 445 nm.
`Cc1cc2c(o1)=CC1=Cc3cc4oc(C)cc4n3[B-](F)(F)[N+]=21` registered an emission maximum (in ClC(Cl)Cl) of 583 nm.
The same measure, in the same setting: next, `F[B-]1(F)OC(c2ccc(C(F)(F)F)cc2)=Cc2c3ccccc3cc[n+]21`: 464.6 nm; `CCN(CC)c1ccc2cc(-c3ccc(-c4ccc5c6ccccc6c6c7cc(-c8ccc(-c9cc%10ccc(N(CC)CC)cc%10oc9=O)cc8)ccc7c7ccccc7c6c5c4)cc3)c(=O)oc2c1`: 482 nm.
With `CC1(C)C(/C=C/c2cc3ccc(O)cc3oc2=O)=[N+](CCCS(=O)(=O)[O-])c2ccc3c(S(=O)(=O)O)cc(S(=O)(=O)O)cc3c21`, the emission maximum is 659 nm (in CCO), 625 nm (in CS(C)=O) and 643 nm (in O).

Values taken from the Deep4Chem optical property database.
